Our source for the TGI and GI50 values is PubChem BioAssay (NCI).

Among the test systems are SK-MEL-28 melanoma; CCRF-CEM leukemia; HT29 colon; SF-295 CNS; TK-10 renal; SNB-19 CNS; OVCAR-3 ovarian; BT-549 breast; MDA-MB-231 breast; PC-3 prostate.
Holding throughout (test): NCI-60 cell line screen, 48 h

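Compound exposure: 48 hours, 5 concentrations, 96-well plates. The concentration for 50% growth inhibition is given as GI50. TGI marks complete inhibition of growth.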

On to `O=C1c2ccccc2C(=O)c2c1ccc1c2N=C(c2ccc(F)cc2)CC(c2ccc(Cl)c(Cl)c2)N1` (stereo unspecified), for which the TGI in the experiment with SK-MEL-28 melanoma came to 36 µM; with CCRF-CEM leukemia it was 17.7 µM; in the experiment with HT29 colon it was 26.3 µM; in the experiment on SF-295 CNS it was 28.6 µM; in the experiment on TK-10 renal, 34 µM; in the experiment with SNB-19 CNS, 25.8 µM.
Turning to `C[C@@H]1C[C@]2(C[C@@H](C)[C@H]3C(C[C@@]4(C)CCC[C@@H]5C6=C[C@H](CCC34C)OC6=CC(=O)OC5(C)C)O2)OC1=O` (stereo partly specified), the TGI in the experiment on CCRF-CEM leukemia, in the experiment on HT29 colon, with SF-295 CNS, with SNB-19 CNS and with OVCAR-3 ovarian was over 51.5 µM in each case.
For the compound `Cc1cc(N=Cc2c(CO)cnc(C)c2O)c(N=Cc2c(CO)cnc(C)c2O)cc1C.[Zn]`, the TGI in the experiment with SK-MEL-28 melanoma, in the experiment with HT29 colon, in the experiment on BT-549 breast, with SF-295 CNS, in the experiment on TK-10 renal and in the experiment with SNB-19 CNS was over 100 µM in each case. Besides, the TGI with MDA-MB-231 breast, in the experiment with PC-3 prostate and in the experiment on OVCAR-3 ovarian was over 100 µM each time.
As for `S=c1nc2[nH]c3ccc(Br)cc3c2n[nH]1`, the TGI in the experiment on SK-MEL-28 melanoma, in the experiment on HT29 colon, in the experiment with BT-549 breast, in the experiment on TK-10 renal, with SNB-19 CNS and with MDA-MB-231 breast was over 100 µM each time. Also, the TGI in the experiment with PC-3 prostate and in the experiment on OVCAR-3 ovarian was over 100 µM each time.
With `COc1ccc(C[C@H](N)C(=O)N2C[C@H](CO)C[C@H](n3ccc(=O)[nH]c3=O)C2)cc1`, the TGI with SK-MEL-28 melanoma, with CCRF-CEM leukemia, in the experiment with HT29 colon, in the experiment on TK-10 renal, in the experiment on SNB-19 CNS and with OVCAR-3 ovarian was over 100 µM each time.
Turning to `S=C1C(=Nc2ccccc2)N(c2ccccc2)/C(=N\c2ccccn2)N1c1ccccc1`, the TGI in the experiment on SK-MEL-28 melanoma was 30.5 µM; in the experiment on CCRF-CEM leukemia, over 100 µM; with HT29 colon, 24.8 µM; in the experiment with SF-295 CNS, 29.9 µM; in the experiment with TK-10 renal it was 28.8 µM; in the experiment with SNB-19 CNS, 29.9 µM. Further, the TGI in the experiment on MDA-MB-231 breast was 31.6 µM; with PC-3 prostate it was 25.4 µM.
Consider `NC(c1ccccc1)(C(F)(F)F)P1(=O)OC(=O)c2ccccc2O1` (stereo unspecified), for which the TGI with SK-MEL-28 melanoma, in the experiment on HT29 colon, with BT-549 breast, in the experiment with SF-295 CNS, with TK-10 renal and in the experiment on SNB-19 CNS was over 100 µM in each case. The TGI in the experiment on MDA-MB-231 breast, with PC-3 prostate and in the experiment with OVCAR-3 ovarian was over 100 µM in each case.
For the compound `CCOC(=O)c1c2c(n3ccc(NC(=O)OC(C)(C)C)cc13)C(=O)c1ncccc1C2=O`, the GI50 in the experiment on SK-MEL-28 melanoma was 0.232 µM; in the experiment on HT29 colon, 0.638 µM; in the experiment with BT-549 breast, 0.179 µM; with SF-295 CNS, 0.272 µM; in the experiment on TK-10 renal it was 0.132 µM; in the experiment with SNB-19 CNS, 0.159 µM. Further, the GI50 in the experiment on PC-3 prostate is 0.25 µM. For the same compound, the TGI came to 1.4 µM in the experiment on SK-MEL-28 melanoma; 2.22 µM in the experiment with HT29 colon; 2.02 µM in the experiment with BT-549 breast; 1.13 µM in the experiment on SF-295 CNS; 3.39 µM in the experiment with TK-10 renal; 1.36 µM in the experiment on SNB-19 CNS. For the same compound, in the experiment with PC-3 prostate, the TGI turned out to be 2.05 µM.
For the compound `O=C1CCCC2=C1C(c1ccc3c(c1)OCO3)Nc1ccc3ccccc3c12` (stereo unspecified), the TGI with SK-MEL-28 melanoma, in the experiment with CCRF-CEM leukemia, in the experiment on HT29 colon, with BT-549 breast, in the experiment on SF-295 CNS and in the experiment on TK-10 renal was over 100 µM in each case. For the same compound, the TGI with SNB-19 CNS, with MDA-MB-231 breast and with OVCAR-3 ovarian was over 100 µM each time.
In the case of `COC(=O)c1nc(-c2ccc3c(n2)C(=O)C(N)=C(OC)C3=O)c(N)c(-c2ccc(OC)c(OC)c2O)c1C`, the TGI in the experiment with SK-MEL-28 melanoma is 2.77 µM; in the experiment with CCRF-CEM leukemia it was over 100 µM; with HT29 colon, 4.43 µM; in the experiment on SF-295 CNS, 2.02 µM; in the experiment on SNB-19 CNS it was 2.22 µM; in the experiment on OVCAR-3 ovarian, 1.66 µM.
`O=C(CN1CCCCC1)c1ccc2c(c1)Sc1ccccc1O2`: the TGI stood at 37.8 µM in the experiment with SK-MEL-28 melanoma; 34.4 µM with CCRF-CEM leukemia; 23.7 µM with HT29 colon; 30.9 µM in the experiment with SF-295 CNS; 44.6 µM with TK-10 renal; 28.9 µM in the experiment on SNB-19 CNS. Moreover, the TGI came to 37.2 µM in the experiment on MDA-MB-231 breast, 24.4 µM in the experiment on PC-3 prostate and 29.6 µM in the experiment on OVCAR-3 ovarian.
As for `O=C(NNc1cn[nH]c(=O)c1Cl)/C(=C/c1ccc2c(c1)OCO2)NC(=O)c1ccccc1`, the TGI was over 100 µM with SK-MEL-28 melanoma; over 100 µM with HT29 colon; 49.1 µM in the experiment with BT-549 breast; over 100 µM with SF-295 CNS; over 100 µM in the experiment on TK-10 renal; over 100 µM in the experiment on SNB-19 CNS. The TGI with MDA-MB-231 breast, with PC-3 prostate and with OVCAR-3 ovarian was over 100 µM in each case.
As for `CC(=NCCN(CCN=C(C)c1c(O)cc(C)oc1=O)CCN=C(C)c1c(O)cc(C)oc1=O)c1c(O)cc(C)oc1=O`, the TGI with SK-MEL-28 melanoma, in the experiment on CCRF-CEM leukemia, in the experiment on HT29 colon, in the experiment on SF-295 CNS, in the experiment on TK-10 renal and in the experiment on SNB-19 CNS was over 100 µM each time. Further, the TGI in the experiment on MDA-MB-231 breast and in the experiment on PC-3 prostate was over 100 µM throughout.
For the compound `O=C(OCCN1CCCCC1)C(c1ccccc1)C1(O)CCSCC1` (stereo unspecified), the TGI in the experiment with SK-MEL-28 melanoma, in the experiment on CCRF-CEM leukemia, in the experiment with HT29 colon, in the experiment on SF-295 CNS, in the experiment with TK-10 renal and with SNB-19 CNS was over 100 µM each time. For the same compound, the TGI in the experiment on MDA-MB-231 breast, in the experiment with PC-3 prostate and with OVCAR-3 ovarian was over 100 µM throughout.
`COc1ccc(C[C@H](N)C(=O)N2C[C@H](CO)C[C@H](n3cnc4c(N(C)C)ncnc43)C2)cc1`: the TGI in the experiment with SK-MEL-28 melanoma, with CCRF-CEM leukemia, in the experiment on HT29 colon, in the experiment with TK-10 renal, with SNB-19 CNS and in the experiment with OVCAR-3 ovarian was over 100 µM each time.
